In ChEMBL document CHEMBL1146751, “Threshold interaction energy of NRTI's (2'-deoxy 3'-substituted nucleosidic analogs of reverse transcriptase inhibitors) to undergo competitive inhibition” (Bioorg Med Chem Lett, 2004):
Counter-ions that a name gives are not always drawn.

system: MT4; assay: Potency against […] nucleoside reverse transcriptor was determined in MT-4 cells; assay type: functional, cell-based; conditions: Homo sapiens

In order of rising IC50:
1. O=C1Nc2ccc(Cl)cc2[C@@](C#CC2CC2)(C(F)(F)F)O1 [EFAVIRENZ]  40 nM
2. Cc1cn([C@H]2C[C@H](N=[N+]=[N-])[C@@H](CO)O2)c(=O)[nH]c1=O [ZIDOVUDINE]  40 nM
3. Cc1ncc([N+](=O)[O-])n1CCOC(c1ccccc1)c1ccccc1  50 nM
4. CCOC(=O)c1cccn1S(=O)(=O)c1cc(Cl)ccc1N  400 nM
5. Cc1ccnc2c1NC(=O)c1cccnc1N2C1CC1 [NEVIRAPINE]  600 nM
6. S=C(NCCc1ccccn1)Nc1ccc(Br)cn1 [TROVIRDINE HYDROCHLORIDE]  800 nM
7. Nc1ccn([C@H]2CC[C@@H](CO)O2)c(=O)n1 [ZALCITABINE]  1600 nM
8. Nc1[nH]cnc2ncnc1-2 [ADENINE]  12000 nM
